Experimental data taken from PubChem BioAssay (NCI).
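Growth conditions: 96-well plates. Treatment: test compound, 48 hours, 5 concentrations. Analysis: linear interpolation between bracketing concentrations; unreached endpoints set to highest concentration. At the GI50, growth is halved. TGI: concentration producing complete growth inhibition.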

Key:
Experiment in all cases: DTP human tumour cell line panel, 48 h
[1] = test system: LOX IMVI melanoma
[2] = test system: SK-MEL-2 melanoma
[3] = test system: HL-60(TB) leukemia
[4] = test system: MDA-MB-231 breast
[5] = test system: NCI-H460 lung
[6] = test system: EKVX NSCLC
[7] = test system: NCI-H23 lung
[8] = test system: ACHN renal
[9] = test system: SK-MEL-5 melanoma
[10] = test system: BT-549 breast

SMILES	TGI [1]	TGI [2]	TGI [3]	TGI [4]	TGI [5]	TGI [6]	TGI [7]	TGI [8]	TGI [9]	TGI [10]	GI50 [1]	GI50 [2]	GI50 [3]	GI50 [4]	GI50 [5]	GI50 [6]	GI50 [7]	GI50 [8]	GI50 [9]	GI50 [10]
Cc1ccc2sc3ccc(N)cc3c(=O)c2c1	> 100 µM	> 100 µM	> 100 µM	> 100 µM	> 100 µM	> 100 µM	> 100 µM	> 100 µM	> 100 µM	> 100 µM	–	–	–	–	–	–	–	–	–	–
[N-]=[N+]=CC(=O)COC(=O)c1ccccc1	> 100 µM	> 100 µM	> 100 µM	> 100 µM	> 100 µM	> 100 µM	> 100 µM	> 100 µM	> 100 µM	> 100 µM	–	–	–	–	–	–	–	–	–	–
CCCCNC(=O)Oc1ccc(/C(=C(/CC)Cc2ccccc2)c2ccc(OCCN3CCCCCC3)cc2)cc1	30.7 µM	> 100 µM	40 µM	36.6 µM	33.8 µM	> 100 µM	> 100 µM	41.6 µM	39.1 µM	> 100 µM	17 µM	71.9 µM	16.5 µM	19.2 µM	18.6 µM	76.8 µM	59.1 µM	18.6 µM	19.9 µM	46.5 µM
CSc1nsc(S/C=C\C(=O)c2ccc(C)cc2)n1	10.8 µM	> 100 µM	> 68.9 µM	27.5 µM	> 73.5 µM	49.7 µM	34.6 µM	31.8 µM	6.88 µM	40.3 µM	4.94 µM	35.7 µM	11.6 µM	11.3 µM	26.7 µM	22.5 µM	17.3 µM	17.6 µM	0.706 µM	17.5 µM
CC[C@]1(O)C[C@@H]2CN(CCc3c([nH]c4ccccc34)[C@@](C(=O)OC)(c3cc4c(cc3OC)N(C)[C@H]3[C@@](O)(C(N)=O)[C@H](O)[C@]5(CC)[C@@H]6C[C@@H]6CN6CC[C@]43[C@@H]65)C2)C1	> 33.3 µM	–	0.013 µM	> 16.2 µM	> 33.3 µM	> 33.3 µM	> 33.3 µM	> 33.3 µM	0.0546 µM	0.708 µM	< 0.00333 µM	< 0.00333 µM	< 0.00333 µM	0.00548 µM	0.00366 µM	0.0624 µM	< 0.00333 µM	0.161 µM	< 0.00333 µM	< 0.00333 µM
O=C(Nc1ccc(Br)cc1)Nc1nn(C(=O)Nc2ccc(Br)cc2)c2ccccc12	> 100 µM	> 100 µM	> 32.2 µM	> 100 µM	> 100 µM	> 100 µM	> 100 µM	> 100 µM	> 100 µM	> 93.7 µM	64.4 µM	23.7 µM	12 µM	27.2 µM	34.1 µM	40.3 µM	29.1 µM	61.9 µM	> 100 µM	34.5 µM
COc1cc(/C=C2\CN(C(=O)CCN3CCC(=NO)CC3)C/C(=C\c3cc(OC)c(OC)c(OC)c3)C2=O)cc(OC)c1OC	0.472 µM	4.14 µM	1.05 µM	1.11 µM	0.847 µM	4.81 µM	1.39 µM	2.51 µM	0.927 µM	1.23 µM	0.194 µM	1.25 µM	0.298 µM	0.323 µM	0.282 µM	1.82 µM	0.342 µM	0.837 µM	0.302 µM	0.332 µM
